From patent US20250339569A1, “CARBONIC ANHYDRASE IX LIGANDS” (priority 2021, published 2025) come the findings set out here.

Each structure is given as a SMILES string. Read-outs that look alike come from different tables or passages of the source. Starred links: 1 amine or outer side, 2 acyl side, 3 side chain; linkers in the order of their positions; H or OH if unused. Positions of bridges follow the written chain, without caps; N, C: chain ends. Non-standard residues stand in square brackets, D forms with d. Residues, ends and D or L forms follow the SMILES beside them. *: point of attachment. DOTA = O=C(O)CN1CCN(CC(=O)O)CCN(CC(=O)*)CCN(CC(=O)O)CC1; X68 = CC1(C(=O)Nc2cccc(C[C@H](N[*:1])C(=O)[*:2])c2)CC1; Trp(5-Cl) = N[C@@H](Cc1c[nH]c2ccc(Cl)cc12)C(=O)O; mXylylene = c1cc(C[*:1])cc(C[*:2])c1; X2 = O=C(CN1CCC(N[*:1])CC1)[*:2]; NMeS = CN[C@@H](CO)C(=O)O; Bn = c1ccc(C*)cc1; Sar = CNCC(=O)O

The assay has as its target T1, CAIX-expressing human HT-29 colorectal cancer cells (Homo sapiens, UniProt Q16790).
T1 construct: CAIX-expressing human HT-29 colorectal cancer cells; host or cells: HT-29 human colorectal cancer cells
Put plainly: FACS binding assay (IC50 determination, competition with tracer 3BP-2776 or 3BP-4149). The protocol: In order to determine binding of compounds according to the present invention to CAIX-expressing cells, a FACS binding assay was established.
CAIX-expressing human HT-29 colorectal cancer cells (DSMZ, RRID: CVCL_0320) were cultured in McCoys's 5A modified medium (Biochrom, #F1015) including 10% fetal calf serum (FCS), 2 mM L-glutamine, 100 U/ml penicillin and 100 μg/mL streptomycin. Cells were detached with Accutase (Biolegend, #423201) and washed in FACS buffer (PBS including 1% FCS). Cells were diluted in FACS buffer to a final concentration of 500.000 cells per ml. 200 μL of the cell suspension were transferred to a u-shaped non-binding 96-well plate (Greiner) and cells were washed in ice-cold FACS buffer.
When biotinylated compounds were used an additional incubation step with 1 μg/mL APC-Streptavidin (Miltenyi; #130-106-791) in 50 μL FACS buffer for 30 minutes on ice was performed.
Cells were washed twice with ice-cold FACS buffer and analyzed in an Attune NxT flow cytometer (Thermo Fisher). Median fluorescence intensities (MFI) of the APC/Cy5-channel were calculated by Attune NxT software. MFI values were plotted against peptide concentration and four parameter logistic (4PL) curve fitting and EC50/pEC50 or IC50/pIC50 calculations were performed using ActivityBase software.

Setting [1] is: FACS competition on HT-29 cells, Tracer ID 3BP-2776 (10 nM, biotin-labeled), 4° C., 1 hour, read-out: pIC50 category (activity) (converted).
Where [2] appears, read: FACS binding assay, HT-29 cells, competition with tracer 3BP-2776 (10 nM, biotin-labeled), 4° C., 1 hour, read-out: pIC50 category (activity) (converted).

Consider `CC(=O)N[C@H](C(=O)N[C@@H](Cc1ccc(O)cc1)C(=O)N[C@H]1CSCc2cccc(c2)CSC[C@@H](C(N)=O)NC(=O)[C@H](CCC(N)=O)NC(=O)[C@H](Cc2c[nH]c3ccccc23)NC(=O)[C@@H]([C@H](C)O)NC(=O)[C@H](CC(C)C)NC(=O)[C@H](Cc2c[nH]c3ccccc23)NC(=O)[C@H](CC(=O)O)NC(=O)CNC(=O)[C@H](CCC(=O)O)NC1=O)C(C)C` [3BP-3049] (Ac-VYCEGDWL[dT]WQC-NH2; linker 3-12 via mXylylene), for which the IC50 under setting [1] is 100 to 794 nM.

Consider `CC(=O)N[C@H](C(=O)N[C@@H](Cc1ccccc1)C(=O)N[C@H]1CSCc2cccc(c2)CSC[C@@H](C(N)=O)NC(=O)[C@H](CO)NC(=O)[C@H](Cc2c[nH]c3ccccc23)NC(=O)[C@H]([C@@H](C)O)NC(=O)[C@H](CC(C)C)NC(=O)[C@H](Cc2c[nH]c3ccccc23)NC(=O)[C@H](CC(=O)O)NC(=O)[C@H]2CCCN2C(=O)[C@H](CCC(=O)O)NC1=O)C(C)C` [3BP-3570] (Ac-VFCE[dP]DWLTWSC-NH2; linker 3-12 via mXylylene), for which the IC50 under setting [1] is less than 10 nM.

`CC(C)C[C@@H]1NC(=O)[C@H](Cc2c[nH]c3ccccc23)NC(=O)[C@H](Cc2ccc(OCc3ccccc3)cc2)NC(=O)[C@H]2CCCN2C(=O)[C@H](CCC(=O)O)NC(=O)[C@@H](NC(=O)[C@H](Cc2ccc(O)cc2)NC(=O)[C@@H](NC(=O)CN2CCC(NC(=O)CN3CCN(CC(=O)O)CCN(CC(=O)O)CCN(CC(=O)O)CC3)CC2)C(C)C)CSCc2cccc(c2)CSC[C@@H](C(N)=O)NC(=O)[C@H](CO)NC(=O)[C@H](Cc2c[nH]c3ccccc23)NC(=O)[C@H]([C@@H](C)O)NC1=O` [3BP-4127] ({DOTA}-[X2]VYCE[dP]Y(Bn)WLTWSC-NH2; linker 4-13 via mXylylene) showed an IC50 of less than 10 nM.

For the compound `CC(=O)N[C@H](C(=O)N[C@@H](Cc1ccc(O)cc1)C(=O)N[C@H]1CSCc2cccc(c2)CSC[C@@H](C(N)=O)NC(=O)[C@H](CCC(N)=O)NC(=O)[C@H](Cc2c[nH]c3ccc(Cl)cc23)NC(=O)[C@H]([C@@H](C)O)NC(=O)[C@H](CC(C)C)NC(=O)[C@H](Cc2c[nH]c3ccccc23)NC(=O)[C@H](CC(=O)O)NC(=O)CN(C)C(=O)[C@H](CCC(=O)O)NC1=O)C(C)C` [3BP-3312] (Ac-VYCE[Sar]DWLT[Trp(5-Cl)]QC-NH2; linker 3-12 via mXylylene), the IC50 under setting [1] was 100 to 794 nM.

For the compound `CC(C)C[C@@H]1NC(=O)[C@H](Cc2cccc(NC(=O)C3(C)CC3)c2)NC(=O)[C@H](CC(=O)O)NC(=O)[C@H]2CCCN2C(=O)[C@H](CCC(=O)O)NC(=O)[C@@H](NC(=O)[C@H](Cc2ccc(O)cc2)NC(=O)[C@@H](NC(=O)CN2CCC(NC(=O)CN3CCN(CC(=O)O)CCN(CC(=O)O)CCN(CC(=O)O)CC3)CC2)C(C)C)CSCc2cccc(c2)CSC[C@@H](C(N)=O)NC(=O)[C@H](CO)NC(=O)[C@H](Cc2c[nH]c3ccccc23)NC(=O)[C@H]([C@@H](C)O)NC1=O` [3BP-4234] ({DOTA}-[X2]VYCE[dP]D[X68]LTWSC-NH2; linker 4-13 via mXylylene), under setting [2], the IC50 is less than 10 nM.

Take `CC(C)C[C@@H]1NC(=O)[C@H](Cc2c[nH]c3ccccc23)NC(=O)[C@H](CC(=O)O)NC(=O)[C@H]2CCCN2C(=O)[C@H](CO)N(C)C(=O)[C@@H](NC(=O)[C@H](Cc2ccc(O)cc2)NC(=O)[C@@H](NC(=O)CN2CCC(NC(=O)CN3CCN(CC(=O)O)CCN(CC(=O)O)CCN(CC(=O)O)CC3)CC2)C(C)C)CSCc2cccc(c2)CSC[C@@H](C(N)=O)NC(=O)[C@H](CO)NC(=O)[C@H](Cc2c[nH]c3ccccc23)NC(=O)[C@H]([C@@H](C)O)NC1=O` [3BP-4108] ({DOTA}-[X2]VYC[NMeS][dP]DWLTWSC-NH2; linker 4-13 via mXylylene): the IC50 under setting [2] was less than 10 nM.
